Target: T1, HIV-1 protease wild type protein (Human immunodeficiency virus type 1 group M subtype B, UniProt P04585)
T1 construct: HIV-1 protease wild type protein; purchased AscoProt Biotech, Prague, Czech Republic
Assay: Biochemical protease assay
Procedure: For the determination of their in vitro activity on HIV proteases the test substances are dissolved in DMSO and serially diluted. In each case 0.5 μl of substance dilution, 20 μl of 0.2-1 nM HIV-1 protease wild type or mutant protein (e.g., multiresistant isolate “35513”: L10I, I15V, L19I, K20R, E35D, M36I, R41K, I54V, L63P, H69K, A71V, T74P, I84V, L89M, L90M, 193L, AscoProt Biotech, Prague, Czech Republic) in buffer 1 (50 mM sodium acetate pH 4.9, 0.02% BSA, 0.1 mM EDTA, 0.5 mM DTT) and 20 μl of 8 μM substrate (M1865 from Bachem, Bubendorf, Switzerland; Matayoshi et al., Science 1990, 247, 954-8) in buffer 1 are added successively to a 384 well microtiter plate (Greiner, Frickenhausen, Germany), incubated for 60-180 minutes at 32° C. and the fluorescence is measured (e.g., Tecan Safire, 340 nm extinction, 520 nm emission). IC50 values are determined by graphical plotting the substance concentration against the percentage inhibition.

Compound	IC50 [nM]
COc1ccc(CCCC(=O)N2CCC3(CC2)OC(=O)C(c2cc(Cl)c(-c4cccc(S(C)(=O)=O)c4)cc2C)=C3O)cc1 [Example 141]	≤ 100
CC/C=C\C(=O)N1CCCC2(C1)OC(=O)C(c1cc(Cl)c(-c3cccc(S(C)(=O)=O)c3)cc1C)=C2O (stereo not drawn) [Example 120]	≤ 100
Cc1cc(-c2ccc(Cl)cc2)c(C)cc1C1=C(O)C2(CCC(C)C(C)C2)OC1=O (stereo not drawn) [Example 9]	≤ 100
Cc1cc(-c2cccc(S(C)(=O)=O)c2)c(Cl)cc1C1=C(O)C2(CCN(C(=O)CCCS(N)(=O)=O)CC2)OC1=O [Example 140]	≤ 100
COc1cccc(-c2cc(C)c(C3=C(O)C4(CCCCC4)OC3=O)cc2Cl)c1 [Example 32]	≤ 100
Cc1cc(-c2cccc(CO)c2)c(Cl)cc1C1=C(O)C2(CCCCC2)OC1=O [Example 26]	≤ 100
COC1CCCCC12OC(=O)C(c1cc(C)c(-c3ccc(Cl)cc3)cc1C)=C2O (stereo not drawn) [Example 15]	≤ 100
Cc1cc(-c2cccc(NS(C)(=O)=O)c2)c(Cl)cc1C1=C(O)C2(CCCCC2)OC1=O [Example 176, N-[2′-Chloro-4′-(4-hydroxy-2-oxo-1-oxaspiro[4.5]dec-3-en-3-yl)-5′-methylbiphenyl-3-yl]methanesulfonamide]	≤ 100
Cc1cc(-c2cccc(S(C)(=O)=O)c2)c(Cl)cc1C1=C(O)C2(CCCN(CC(=O)NCc3ccco3)C2)OC1=O (stereo not drawn) [Example 169]	≤ 100
Cc1cc(-c2cccc(S(C)(=O)=O)c2)c(Cl)cc1C1=C(O)C2(CCN(C(=O)Cc3ccc(S(=O)(=O)O)cc3)CC2)OC1=O [Example 143]	≤ 100
Cc1cc(-c2cccc(S(C)(=O)=O)c2)c(Cl)cc1C1=C(O)C2(CCCN(CC(=O)NCc3ccccc3)C2)OC1=O (stereo not drawn) [Example 128]	≤ 100
Cc1cc(-c2cccc(S(C)(=O)=O)c2)c(Cl)cc1C1=C(O)C2(CCCN(S(=O)(=O)Cc3ccccc3)C2)OC1=O (stereo not drawn) [Example 110]	≤ 100
Cc1cc(-c2cccc(S(C)(=O)=O)c2)c(Cl)cc1C1=C(O)C2(CCCN(C(=O)N3CCOCC3)C2)OC1=O (stereo not drawn) [Example 106]	≤ 100
Cc1cc(-c2ccc(NC(=O)OC(C)(C)C)cc2)c(Cl)cc1C1=C(O)C2(CCCCC2)OC1=O [Example 43]	≤ 100
C=CS(=O)(=O)Nc1cccc(-c2cc(C)c(C3=C(O)C4(CCCCC4)OC3=O)cc2Cl)c1 [Example 193, N-[2′-Chloro-4′-(4-hydroxy-2-oxo-1-oxaspiro[4.5]dec-3-en-3-yl)-5′-methylbiphenyl-3-yl]ethenesulfonamide]	≤ 100
COc1cccc(-c2ccc(C3=C(O)C4(CCCCC4)OC3=O)c(C)c2)c1 [Example 60]	≤ 100
Cc1cc(-c2cccc(Cl)c2)c(Cl)cc1C1=C(O)C2(CCCCC2)OC1=O [Example 31]	≤ 100
Cc1cc(-c2cccc(S(C)(=O)=O)c2)c(Cl)cc1C1=C(O)C2(CCCN(C(=O)/C=C/c3cccnc3)C2)OC1=O (stereo not drawn) [Example 111]	≤ 100
Cc1cc(-c2ccc(C(=O)NCC(=O)O)cc2)c(Cl)cc1C1=C(O)C2(CCCCC2)OC1=O [Example 52]	≤ 100
Cc1cc(-c2cccc(S(C)(=O)=O)c2)c(Cl)cc1C1=C(O)C2(CCCN(CC(=O)NCc3ccc(Cl)s3)C2)OC1=O (stereo not drawn) [Example 203]	≤ 100

Compound	IC50 [nM]
Cc1cc(-c2cccc(S(C)(=O)=O)c2)c(Cl)cc1C1=C(O)C2(CCN(C(=O)OCc3ccccc3)CC2)OC1=O [Example 72, benzyl 3-[2-chloro-5-methyl-3′-(methylsulfonyl)biphenyl-4-yl]-4-hydroxy-2-oxo-1-oxa-8-azaspiro[4.5]dec-3-ene-8-carboxylate]	≤ 100
Cc1cc(-c2cccc(S(C)(=O)=O)c2)c(Cl)cc1C1=C(O)C2(CCCN(Cc3nc4ccccc4[nH]3)C2)OC1=O (stereo not drawn) [Example 99]	≤ 100
Cc1cc(-c2cccc([N+](=O)[O-])c2)c(Cl)cc1C1=C(O)C2(CCCCC2)OC1=O [Example 40]	≤ 100
Cc1cc(-c2cccc(S(C)(=O)=O)c2)c(Cl)cc1C1=C(O)C2(CCCN(S(=O)(=O)CCCC(F)(F)F)C2)OC1=O (stereo not drawn) [Example 114]	≤ 100
Cc1ccc(-c2cc(C)c(C3=C(O)C4(CCCCC4)OC3=O)cc2Cl)cc1 [Example 22]	≤ 100
Cc1cc(-c2cccc(S(C)(=O)=O)c2)c(Cl)cc1C1=C(O)C2(CCCN(CC(=O)NC(C)C)C2)OC1=O (stereo not drawn) [Example 101]	≤ 100
COCCNC(=O)CN1CCCC2(C1)OC(=O)C(c1cc(Cl)c(-c3cccc(S(C)(=O)=O)c3)cc1C)=C2O (stereo not drawn) [Example 116]	≤ 100
CCOc1cc(-c2cccc(S(C)(=O)=O)c2)c(C)cc1C1=C(O)C2(CCCCC2)OC1=O [Example 93]	≤ 100
Cc1cc(-c2ccc(N)cc2)c(Cl)cc1C1=C(O)C2(CCCCC2)OC1=O [Example 171, 3-(4′-Amino-2-chloro-5-methylbiphenyl-4-yl)-4-hydroxy-1-oxaspiro[4.5]dec-3-en-2-one]	≤ 100
Cc1cc(-c2cccc(NS(=O)(=O)c3cccnc3)c2)c(Cl)cc1C1=C(O)C2(CCCCC2)OC1=O [Example 192]	≤ 100
Cc1cc(-c2ccccc2)ccc1C1=C(O)C2(CCCCC2)OC1=O [Example 59]	≤ 100
Cc1cc(-c2cccc(S(C)(=O)=O)c2)c(Cl)cc1C1=C(O)C2(CCN(C(=O)Cc3ccc(OC(F)(F)F)cc3)CC2)OC1=O [Example 144]	≤ 100
Cc1cc(-c2cccc(S(C)(=O)=O)c2)c(Cl)cc1C1=C(O)C2(CCCCC2)OC1=O [Example 36]	≤ 100
Cc1cc(-c2cccc(S(C)(=O)=O)c2)c(Cl)cc1C1=C(O)C2(CCCN(CC(=O)NC(C)c3ccccc3)C2)OC1=O (stereo not drawn) [Example 134]	≤ 100
CCOc1ccccc1-c1cc(C)c(C2=C(O)C3(CCC(OC)CC3)OC2=O)cc1Cl (stereo not drawn) [Example 55]	≤ 100
Cc1cc(-c2ccc(Cl)cc2)c(C)cc1C1=C(O)C2(CCC(=O)CC2)OC1=O [Example 11]	≤ 100
COc1cccc(-c2cc(Cl)c(C3=C(O)C4(CCCCC4)OC3=O)cc2C)c1 [Example 69]	≤ 100
Cc1cc(-c2ccc(Cl)cc2)c(C)cc1C1=C(O)C2(CCC3CCCC3C2)OC1=O (stereo not drawn) [Example 12]	≤ 100
Cc1cc(-c2cccc(NS(C)(=O)=O)c2)c(Cl)cc1C1=C(O)C2(CCN(C(=O)OCc3ccccc3)CC2)OC1=O [Example 91]	≤ 100
Cc1cc(-c2cccc(S(C)(=O)=O)c2)c(Cl)cc1C1=C(O)C2(CCN(C(=O)CCCC(C)C)CC2)OC1=O [Example 139]	≤ 100

Compound	IC50 [nM]
Cc1cc(-c2cccc(S(C)(=O)=O)c2)c(Cl)cc1C1=C(O)C2(CCCN(C(=O)CC3CCCC3)C2)OC1=O (stereo not drawn) [Example 136]	≤ 100
Cc1cc(-c2ccc([N+](=O)[O-])cc2)c(Cl)cc1C1=C(O)C2(CCC3CCCC3C2)OC1=O (stereo not drawn) [Example 89]	≤ 100
CCOC1CCCCC12OC(=O)C(c1cc(Cl)c(-c3ccccc3)cc1C)=C2O (single isomer, unassigned) [Example 77]	≤ 100
Cc1cc(-c2cccc(C(N)=O)c2)c(Cl)cc1C1=C(O)C2(CCCCC2)OC1=O [Example 41]	≤ 100
Cc1cc(-c2cccc(S(C)(=O)=O)c2)c(Cl)cc1C1=C(O)C2(CCCN(CC(=O)NCc3cccs3)C2)OC1=O (stereo not drawn) [Example 170]	≤ 100
Cc1cc(-c2cccc(S(C)(=O)=O)c2)c(Cl)cc1C1=C(O)C2(CCCN(CC(=O)Nc3ccccc3)C2)OC1=O (stereo not drawn) [Example 126]	≤ 100
Cc1cc(-c2cccc(S(C)(=O)=O)c2)c(Cl)cc1C1=C(O)C2(CCCCCC2)OC1=O [Example 198]	≤ 100
Cc1cc(-c2cc(C)c(C3=C(O)C4(CCCCC4)OC3=O)cc2Cl)ccc1F [Example 34]	≤ 100
CC(=O)Nc1cc(-c2cc(C)c(C3=C(O)C4(CCCCC4)OC3=O)cc2Cl)ccc1C [Example 184, N-[2′-Chloro-4′-(4-hydroxy-2-oxo-1-oxaspiro[4.5]dec-3-en-3-yl)-4,5′-dimethylbiphenyl-3-yl]acetamide]	≤ 100
Cc1cc(-c2cccc(S(C)(=O)=O)c2)c(Cl)cc1C1=C(O)C2(CCCN(CC(=O)NCCc3ccccc3)C2)OC1=O (stereo not drawn) [Example 130]	≤ 100
Cc1cc(-c2ccc(NS(C)(=O)=O)cc2)c(Cl)cc1C1=C(O)C2(CCCCC2)OC1=O [Example 178]	≤ 100
Cc1cc(-c2cccc(S(C)(=O)=O)c2)c(Cl)cc1C1=C(O)C2(CCN(C(=O)CCc3cccnc3)CC2)OC1=O [Example 147]	≤ 100
CC(=O)N1CCC2(CC1)OC(=O)C(c1cc(Cl)c(-c3cccc(S(C)(=O)=O)c3)cc1C)=C2O [Example 158]	≤ 100
CCOC(=O)N1CCC2(CC1)OC(=O)C(c1cc(Cl)c(-c3cccc(S(C)(=O)=O)c3)cc1C)=C2O [Example 153]	≤ 100
Cc1cc(-c2ccc(NC(=O)C(C)(C)C)cc2)c(Cl)cc1C1=C(O)C2(CCCCC2)OC1=O [Example 44]	≤ 100
Cc1cc(-c2cccc(NS(C)(=O)=O)c2)c(Cl)cc1C1=C(O)C2(CCCC2)OC1=O [Example 202]	≤ 100
Cc1cc(-c2cccc(S(C)(=O)=O)c2)c(Cl)cc1C1=C(O)C2(CCN(C(=O)OCC(C)(C)C)CC2)OC1=O [Example 152]	≤ 100
Cc1ccc(CNC(=O)CN2CCCC3(C2)OC(=O)C(c2cc(Cl)c(-c4cccc(S(C)(=O)=O)c4)cc2C)=C3O)cc1 (stereo not drawn) [Example 133]	≤ 100
CCCS(=O)(=O)Nc1cccc(-c2cc(C)c(C3=C(O)C4(CCCCC4)OC3=O)cc2Cl)c1 [Example 177]	≤ 100
Cc1cc(-c2cccc(C)c2C)c(Cl)cc1C1=C(O)C2(CCCCC2)OC1=O [Example 33]	≤ 100

Reference: US20100022527A1, “BIPHENYL SUBSTITUTED SPIROTETRONIC ACIDS AND THEIR USE FOR THE TREATMENT OF RETROVIRAL DISEASES” (priority 2006, published 2010)
